In US5811391A, “Cyclic CS-1 peptidomimetics, compositions and methods of using same” (Cytel Corporation, priority 1995, dated 1998):
Positions of bridges follow the written chain, without caps; N, C: chain ends. Non-standard residues stand in square brackets, D forms with d. Residues, ends and D or L forms follow the SMILES beside them. *: point of attachment. Pen = CC(C)(S)[C@H](N)C(=O)O; PhAc = O=C(Cc1ccccc1)*

Molecular target: VLA-4 (Homo sapiens, UniProt P05556+P13612)
Assay: In vitro binding assay: 51Cr-labeled Jurkat cells to solid phase-bound CS-1 peptide (SEQ ID NO:5)
Format: cell-based
Set-up: inflammatory cells that contain the VLA-4 receptor [Jurkat cells; host or cells: Jurkat cells (human T lymphoblastic line)
Conditions: for Relative Potency: CS-1; for Potency in inhibiting Jurkat cell binding to CS-1 relative to standard 10-mer of SEQ ID NO:6: times/fold more potent than SEQ ID NO:6
Description: Binding inhibition is measured here as a concentration of peptide that inhibits one-half the binding between a standard number of Jurkat cells and a standard amount of CS-1 peptide bound to the surface of a microtiter plate well. Those concentrations are conveniently expressed as IC50 values, smaller numbers indicating a lower concentration required to inhibit 50 percent binding and therefore greater potency. Further specifics of this assay are provided hereinafter.
Jurkat cells (ATCC TIB 152), a human T lymphoblastic line, labeled with ^51 chromium were used to assay in vitro binding inhibition provided by various peptides discussed herein.
The plates were prepared as follows: The 25-mer CS-1 peptide (SEQ ID NO:5) dissolved at 0.5-1 μg/ml in a buffer of 0.1M NaHCO3 at pH 9.5 that also contained 10 μg/ml of bovine serum albumin (BSA) or a conjugate of the CS-1 peptide linked to ovalbumin (CS-1-OVA) dissolved at 1-2.5 μg/ml in the same buffer was used as the substrate. Each well of the microtiter plates was coated with 50 μl of substrate or buffer alone for controls. The wells were permitted to dry out completely and were then rinsed twice with PBS at pH 7.4. Non-specific binding sites of each well were then blocked using 200 μl per well of RPMI/1 percent BSA for two hours at room temperature. Both solid phase-affixed substrates provided similar results.
Jurkat cells (3-5×10^6 cells) were placed into a 15 ml FALCON™ round-bottom tube with a cap. The tube was centrifuged, and the extra medium was then removed.
Two hundred microliters of a ^51 Cr labeling solution were added to the centrifuged cells and maintained in contact with the cells for 90-120 minutes in a warm room. This procedure typically provides about 50,000-100,000 cpm/well with about 80-100 percent cell viability. Longer contact times provide a greater amount of labeling but lower cell viability.
The labeled cells were washed with (i) complete medium, (ii) 1mM EDTA/PBS and then (iii) RPM1/1 percent BSA free of serum components. The cells were centrifuged after each washing. The cells were finally resuspended in serum-free RPMI/1 percent BSA at a concentration of 1×10^6 viable cells/ml, which provides a concentration that is diluted by one-half in the assay.
Cyclic inhibitor peptides were prepared as stock solutions at 20 mg/ml in DMSO in 1.5 ml cryogenic screwcap vials, and were stored at -70° C. Using FLOW™ round-bottom or V-bottom microtiter plates, the inhibitor peptides were prepared at twice the assay concentration in RPMI/1 percent BSA at 60 μl/well.
Four initial dilutions were typically used.
The ^51 Cr-labeled cells (1×10^6 cells at 60 μl/well) were then admixed with the diluted cyclic peptide solutions. The admixtures were maintained at room temperature (about 22° C.) for 30 minutes.
One hundred microliters of each inhibitor peptide/cell admixture were transferred to the substrate-coated wells. This was done in triplicate for each dilution. The resulting plates were incubated for 30 minutes at 37° C. and then washed gently three times with RPMI/1 percent BSA at 200 μl/well. Binding was observed microscopically, particularly after the second wash.
The bound cells were then lysed by the addition of a 0.5 percent solution of sodium dodecylsulfate in water at 100 μl/well. The resulting solutions were then processed for counting and calculation of IC50 values following usual procedures. Appropriate positive and negative controls were used with each plate so that the results of separate assays could be normalized and compared.
The potency data of Table 1 and Table 2 are so normalized. The absolute IC50 value for the peptide of SEQ ID NO:7 is 0.3 μM.

[1] = Table 2, normalized IC50 potency relative to standard peptide SEQ ID NO:6, Jurkat cells
[2] = Table 1, normalized IC50 potency relative to standard peptide SEQ ID NO:6 (=1), Jurkat cells

Chain of VLA-4 (P13612 34-1032): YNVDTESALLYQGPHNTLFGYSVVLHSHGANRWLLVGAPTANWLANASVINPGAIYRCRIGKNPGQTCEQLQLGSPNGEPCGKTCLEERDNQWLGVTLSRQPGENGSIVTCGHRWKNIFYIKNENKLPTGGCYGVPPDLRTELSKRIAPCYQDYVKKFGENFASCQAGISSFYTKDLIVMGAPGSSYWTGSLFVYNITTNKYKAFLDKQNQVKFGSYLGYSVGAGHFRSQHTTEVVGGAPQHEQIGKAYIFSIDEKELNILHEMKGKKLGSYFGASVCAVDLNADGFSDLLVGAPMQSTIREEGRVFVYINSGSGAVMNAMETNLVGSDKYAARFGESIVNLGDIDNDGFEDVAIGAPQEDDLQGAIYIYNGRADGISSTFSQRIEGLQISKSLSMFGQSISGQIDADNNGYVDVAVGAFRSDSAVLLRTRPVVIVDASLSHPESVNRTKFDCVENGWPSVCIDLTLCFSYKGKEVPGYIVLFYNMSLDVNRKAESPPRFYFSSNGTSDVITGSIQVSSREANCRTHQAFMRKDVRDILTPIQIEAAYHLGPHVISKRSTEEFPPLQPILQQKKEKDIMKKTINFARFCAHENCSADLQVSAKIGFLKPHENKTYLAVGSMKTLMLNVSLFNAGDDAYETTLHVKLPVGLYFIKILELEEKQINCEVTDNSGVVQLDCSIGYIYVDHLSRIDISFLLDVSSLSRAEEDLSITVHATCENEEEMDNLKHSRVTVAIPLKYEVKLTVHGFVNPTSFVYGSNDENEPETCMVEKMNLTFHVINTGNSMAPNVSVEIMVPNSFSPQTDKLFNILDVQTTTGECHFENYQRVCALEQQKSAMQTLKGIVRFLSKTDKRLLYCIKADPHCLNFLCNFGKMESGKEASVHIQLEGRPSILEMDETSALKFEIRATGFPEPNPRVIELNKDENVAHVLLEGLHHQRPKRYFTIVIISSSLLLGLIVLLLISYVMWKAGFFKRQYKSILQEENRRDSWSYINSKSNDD
Chain of VLA-4 (P05556 21-798): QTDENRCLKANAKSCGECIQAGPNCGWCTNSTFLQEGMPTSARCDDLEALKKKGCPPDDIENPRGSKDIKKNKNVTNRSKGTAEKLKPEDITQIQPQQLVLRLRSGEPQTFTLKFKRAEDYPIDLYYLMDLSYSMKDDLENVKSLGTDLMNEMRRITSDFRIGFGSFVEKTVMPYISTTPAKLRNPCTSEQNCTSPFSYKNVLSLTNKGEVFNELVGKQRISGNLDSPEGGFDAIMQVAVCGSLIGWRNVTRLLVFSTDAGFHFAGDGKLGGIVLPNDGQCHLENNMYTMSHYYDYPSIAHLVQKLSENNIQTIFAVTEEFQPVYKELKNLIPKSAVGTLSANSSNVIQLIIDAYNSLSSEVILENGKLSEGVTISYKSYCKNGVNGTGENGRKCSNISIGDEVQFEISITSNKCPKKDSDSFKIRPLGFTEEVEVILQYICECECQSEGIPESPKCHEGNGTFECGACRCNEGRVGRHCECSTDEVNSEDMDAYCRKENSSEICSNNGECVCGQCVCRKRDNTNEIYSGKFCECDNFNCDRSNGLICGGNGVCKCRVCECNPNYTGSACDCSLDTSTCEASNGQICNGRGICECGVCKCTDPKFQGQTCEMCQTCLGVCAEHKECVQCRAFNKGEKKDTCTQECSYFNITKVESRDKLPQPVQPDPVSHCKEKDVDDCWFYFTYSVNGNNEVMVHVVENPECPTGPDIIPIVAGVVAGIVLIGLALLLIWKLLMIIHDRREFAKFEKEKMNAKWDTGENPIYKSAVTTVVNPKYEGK

Row | Compound | Relative Potency [2] | also measured
1 | CC(=O)N[C@H]1CSSC[C@@H](C(=O)N2CCC[C@@H]2C(N)=O)NC(=O)[C@H](CC(=O)O)NC(=O)[C@H](CC(C)C)NC1=O (Ac-CLDC[dP]-NH2; disulfide 1-4) | – | Relative Potency [1]: 0
2 | CC(C)C[C@@H]1NC(=O)[C@H](Cc2ccccc2)NC(=O)[C@H](CCC(=O)O)NC(=O)[C@@H]2CCCN2C(=O)CNC(=O)[C@@H](N)CSSC[C@@H](C(N)=O)NC(=O)[C@@H]2CCCN2C(=O)[C@H](Cc2ccccc2)NC(=O)[C@H](CC(=O)O)NC1=O (H-CGPEFLDFPC-NH2; disulfide 1-10) | – | Relative Potency [1]: 6.26
3 | NC(=O)[C@@H]1CSSC[C@H](NC(=O)[C@H](N)Cc2ccccc2)C(=O)N[C@@H](CC(=O)O)C(=O)N[C@@H](Cc2ccccc2)C(=O)N1 (H-[dF]CDFC-NH2; disulfide 2-5) | – | Relative Potency [1]: 3.13
4 | CC1(C)SSC[C@H](C(N)=O)NC(=O)[C@H](Cc2ccccc2)NC(=O)[C@H](CC(=O)O)NC(=O)[C@H]1NC(=O)Cc1ccccc1 [.phi.AcJDFc-NH2] (PhAc-[Pen]DF[dC]-NH2; disulfide 1-4) | 4 | –
5 | CC(=O)N[C@@H](CC(C)C)C(=O)N[C@@H](CC(=O)O)C(=O)N[C@@H](Cc1ccccc1)C(N)=O [AcLDF-NH2] (Ac-Leu-Asp-Phe-NH2) | < 1 | –
6 | CC(=O)N[C@@H](CC(C)C)C(=O)N[C@@H](CC(=O)O)C(=O)N[C@H](C(N)=O)C(C)C [AcLDV-NH2, reference compound] (Ac-Leu-Asp-Val-NH2) | < 1 | Potency in inhibiting Jurkat cell binding to CS-1 relative to standard 10-mer of SEQ ID NO:6: about 1
7 | CC(C)C[C@H](N)C(=O)N[C@@H](CC(=O)O)C(=O)N[C@@H](Cc1ccccc1)C(N)=O [LDF-NH2] (H-Leu-Asp-Phe-NH2) | 0 | –
8 | CC(C)C[C@H](N)C(=O)N[C@@H](CC(=O)O)C(=O)N[C@H](C(N)=O)C(C)C [LDV-NH2, reference compound] (H-Leu-Asp-Val-NH2) | 0 | Potency in inhibiting Jurkat cell binding to CS-1 relative to standard 10-mer of SEQ ID NO:6: zero
9 | CC(C)C[C@@H]1NC(=O)[C@H](Cc2ccccc2)NC(=O)[C@@H](N)CSSC[C@@H](C(N)=O)NC(=O)[C@@H]2CCCN2C(=O)[C@H](Cc2ccccc2)NC(=O)[C@H](CC(=O)O)NC1=O [SEQ ID NO:10, CFLDFPC-N2] (H-CFLDFPC-NH2; disulfide 1-7) | 253 | inhibition of binding to CS-1 (in words): excellent inhibitors; IC50 (Jurkat cells, solid phase-bound CS-1, read-out: absolute value of IC50): ~600 nM; Potency in inhibiting Jurkat cell binding to CS-1 relative to standard 10-mer of SEQ ID NO:6: about 253
10 | CC(=O)N[C@H]1CSSC[C@@H](C(N)=O)NC(=O)[C@@H]2CCCN2C(=O)[C@H](Cc2ccccc2)NC(=O)[C@H](CC(=O)O)NC(=O)[C@H](CC(C)C)NC(=O)[C@H](Cc2ccccc2)NC1=O [SEQ ID NO:11, AcCFLDFPC-NH2] (Ac-CFLDFPC-NH2; disulfide 1-7) | 134 | –
11 | NC(=O)[C@@H]1CSSC[C@H](NC(=O)[C@@H](N)Cc2ccccc2)C(=O)N[C@@H](CC(=O)O)C(=O)N[C@@H](Cc2ccccc2)C(=O)N2CCC[C@H]2C(=O)N1 [SEQ ID NO:12, FCDFPC-NH2] (H-FCDFPC-NH2; disulfide 2-6) | 131 | –
12 | CC1(C)SSC[C@@H](C(N)=O)NC(=O)[C@H](Cc2ccccc2)NC(=O)[C@H](CC(=O)O)NC(=O)[C@H]1NC(=O)Cc1ccccc1 [SEQ ID NO:14, .phi.AcJDFC-NH2] (PhAc-[Pen]DFC-NH2; disulfide 1-4) | 94 | –
13 | CC(C)C[C@@H]1NC(=O)[C@H](Cc2ccccc2)NC(=O)[C@@H](N)CSSC[C@@H](C(N)=O)NC(=O)[C@H]([C@@H](C)O)NC(=O)[C@H](CO)NC(=O)[C@@H]2CCCN2C(=O)[C@H](Cc2ccccc2)NC(=O)[C@H](CC(=O)O)NC1=O [SEQ ID NO:15, CFLDFPSTC-NH2] (H-CFLDFPSTC-NH2; disulfide 1-9) | 81 | –
14 | CC(C)C[C@@H]1NC(=O)[C@H](Cc2ccccc2)NC(=O)[C@H](CCC(=O)O)NC(=O)[C@@H]2CCCN2C(=O)[C@@H](N)CSSC[C@@H](C(N)=O)NC(=O)[C@@H]2CCCN2C(=O)[C@H](Cc2ccccc2)NC(=O)[C@H](CC(=O)O)NC1=O [SEQ ID NO:16, CPEFLDFPC-NH2] (H-CPEFLDFPC-NH2; disulfide 1-9) | 56 | –
15 | CC(=O)N[C@@H](Cc1ccccc1)C(=O)N[C@H]1CSSC[C@@H](C(N)=O)NC(=O)[C@H](Cc2ccccc2)NC(=O)[C@H](CC(=O)O)NC1=O [SEQ ID NO:17, AcFCDFC-NH2] (Ac-FCDFC-NH2; disulfide 2-5) | 52 | –
16 | CC(=O)N[C@@H](Cc1ccccc1)C(=O)N[C@@H](CS)C(=O)N[C@@H](CC(=O)O)C(=O)N[C@@H](Cc1ccccc1)C(=O)N[C@@H](CS)C(N)=O [SEQ ID NO:18, AcFCDFC-NH2] (Ac-FCDFC-NH2) | 41 | –
17 | CC(C)C[C@@H]1NC(=O)[C@H](Cc2ccccc2)NC(=O)[C@H](CCC(=O)O)NC(=O)[C@@H]2CCCN2C(=O)[C@@H](N)CSSC[C@@H](C(N)=O)NC(=O)[C@H](CO)NC(=O)[C@@H]2CCCN2C(=O)[C@H](Cc2ccccc2)NC(=O)[C@H](CC(=O)O)NC1=O [SEQ ID NO:19, CPEFLDFPSC-NH2] (H-CPEFLDFPSC-NH2; disulfide 1-10) | 6 | –
18 | CC(C)C[C@@H]1NC(=O)[C@H](Cc2ccccc2)NC(=O)[C@H](CCC(=O)O)NC(=O)[C@@H](N)CSSC[C@@H](C(N)=O)NC(=O)[C@@H]2CCCN2C(=O)[C@H](Cc2ccccc2)NC(=O)[C@H](CC(=O)O)NC1=O [SEQ ID NO:20, CEFLDFPC-NH2] (H-CEFLDFPC-NH2; disulfide 1-8) | 19 | –
19 | CC(C)C[C@@H]1NC(=O)[C@H](Cc2ccccc2)NC(=O)[C@@H](N)CSSC[C@@H](C(N)=O)NC(=O)[C@H](C(C)C)NC(=O)[C@H]([C@@H](C)O)NC(=O)[C@H](CO)NC(=O)[C@@H]2CCCN2C(=O)[C@H](Cc2ccccc2)NC(=O)[C@H](CC(=O)O)NC1=O [SEQ ID NO:21, CFLDFPSTVC-NH2] (H-CFLDFPSTVC-NH2; disulfide 1-10) | 19 | –
20 | CC(C)C[C@@H]1NC(=O)[C@H](Cc2ccccc2)NC(=O)[C@H](CCC(=O)O)NC(=O)[C@@H](N)CSSC[C@@H](C(N)=O)NC(=O)[C@H]([C@@H](C)O)NC(=O)[C@H](CO)NC(=O)[C@@H]2CCCN2C(=O)[C@H](Cc2ccccc2)NC(=O)[C@H](CC(=O)O)NC1=O [SEQ ID NO:22, CEFLDFPSTC-NH2] (H-CEFLDFPSTC-NH2; disulfide 1-10) | 9 | –
21 | CC(C)C[C@@H]1NC(=O)[C@H](Cc2ccccc2)NC(=O)[C@H](CCC(=O)O)NC(=O)[C@@H]2CCCN2C(=O)CNC(=O)[C@@H](N)CSSC[C@@H](C(N)=O)NC(=O)[C@H](Cc2ccccc2)NC(=O)[C@H](CC(=O)O)NC1=O [SEQ ID NO:23, CGPEFLDFC-NH2] (H-CGPEFLDFC-NH2; disulfide 1-9) | 9 | –
22 | CC(C)C[C@@H]1NC(=O)[C@H](Cc2ccccc2)NC(=O)[C@H](CCC(=O)O)NC(=O)[C@@H](N)CSSC[C@@H](C(N)=O)NC(=O)[C@H](CO)NC(=O)[C@@H]2CCCN2C(=O)[C@H](Cc2ccccc2)NC(=O)[C@H](CC(=O)O)NC1=O [SEQ ID NO:24, CEFLDFPSC-NH2] (H-CEFLDFPSC-NH2; disulfide 1-9) | 6 | –
23 | NC(=O)[C@@H]1CSSC[C@H](NC(=O)[C@@H](N)Cc2ccccc2)C(=O)N[C@@H](CC(=O)O)C(=O)N[C@@H](Cc2ccccc2)C(=O)N1 [SEQ ID NO:25, FCDFC-NH2] (H-FCDFC-NH2; disulfide 2-5) | 3 | –
